Experimental data from PubChem BioAssay (NCI).
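Following 48 hours of exposure in 96-well plates, responses at five concentrations were used to interpolate endpoints linearly. TGI is the concentration that stops growth completely.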

Columns and labels:
Assay in all cases: NCI tumour cell line growth inhibition, 48 h
HL-60(TB) leukemia = tested on: HL-60(TB) leukemia
PC-3 prostate = tested on: PC-3 prostate
RXF 393 renal = tested on: RXF 393 renal
M14 melanoma = tested on: M14 melanoma
SF-295 CNS = tested on: SF-295 CNS
MDA-N = tested on: MDA-N
UACC-257 melanoma = tested on: UACC-257 melanoma
HCC-2998 colon = tested on: HCC-2998 colon
BT-549 breast = tested on: BT-549 breast
NCI-H226 lung = tested on: NCI-H226 lung
MDA-MB-231 breast = tested on: MDA-MB-231 breast
MOLT-4 leukemia = tested on: MOLT-4 leukemia
MCF7 breast = tested on: MCF7 breast
K-562 leukemia = tested on: K-562 leukemia
A498 renal = tested on: A498 renal
HOP-92 NSCLC = tested on: HOP-92 NSCLC
COLO 205 colon = tested on: COLO 205 colon
LOX IMVI melanoma = tested on: LOX IMVI melanoma
NCI/ADR-RES ovarian = tested on: NCI/ADR-RES ovarian
A549 NSCLC = tested on: A549 NSCLC
MALME-3M melanoma = tested on: MALME-3M melanoma
TK-10 renal = tested on: TK-10 renal
HT29 colon = tested on: HT29 colon
SNB-19 CNS = tested on: SNB-19 CNS
SN12C renal = tested on: SN12C renal
SK-OV-3 ovarian = tested on: SK-OV-3 ovarian
SW-620 colon = tested on: SW-620 colon
CAKI-1 renal = tested on: CAKI-1 renal
EKVX NSCLC = tested on: EKVX NSCLC
CCRF-CEM leukemia = tested on: CCRF-CEM leukemia
KM12 colon = tested on: KM12 colon
HCT-116 colon = tested on: HCT-116 colon
NCI-H23 lung = tested on: NCI-H23 lung
NCI-H460 lung = tested on: NCI-H460 lung
HCT-15 colon = tested on: HCT-15 colon
SK-MEL-2 melanoma = tested on: SK-MEL-2 melanoma
HS 578T breast = tested on: HS 578T breast
HOP-62 NSCLC = tested on: HOP-62 NSCLC
OVCAR-8 ovarian = tested on: OVCAR-8 ovarian
DU-145 prostate = tested on: DU-145 prostate
ACHN renal = tested on: ACHN renal
OVCAR-3 ovarian = tested on: OVCAR-3 ovarian
UO-31 renal = tested on: UO-31 renal
OVCAR-4 ovarian = tested on: OVCAR-4 ovarian
MDA-MB-435 = tested on: MDA-MB-435
OVCAR-5 ovarian = tested on: OVCAR-5 ovarian
786-0 renal = tested on: 786-0 renal
IGROV1 ovarian = tested on: IGROV1 ovarian
RPMI-8226 leukemia = tested on: RPMI-8226 leukemia
UACC-62 melanoma = tested on: UACC-62 melanoma
SF-268 CNS = tested on: SF-268 CNS
SK-MEL-5 melanoma = tested on: SK-MEL-5 melanoma
SF-539 CNS = tested on: SF-539 CNS
NCI-H522 lung = tested on: NCI-H522 lung
U251 CNS = tested on: U251 CNS
SK-MEL-28 melanoma = tested on: SK-MEL-28 melanoma
SR leukemia = tested on: SR leukemia
SNB-75 CNS = tested on: SNB-75 CNS

SMILES: NC(=O)N/N=C\c1ccccc1OCc1cccc(COc2ccccc2/C=N\NC(N)=O)n1
- TGI (HL-60(TB) leukemia): > 100 µM
- TGI (PC-3 prostate): > 100 µM
- TGI (RXF 393 renal): 31.5 µM
- TGI (M14 melanoma): > 100 µM
- TGI (SF-295 CNS): 33.8 µM
- TGI (MDA-N): > 100 µM
- TGI (UACC-257 melanoma): > 100 µM
- TGI (HCC-2998 colon): > 100 µM
- TGI (BT-549 breast): 81.8 µM
- TGI (NCI-H226 lung): > 100 µM
- TGI (MDA-MB-231 breast): 32.8 µM
- TGI (MOLT-4 leukemia): > 100 µM
- TGI (MCF7 breast): > 100 µM
- TGI (K-562 leukemia): > 100 µM
- TGI (A498 renal): > 100 µM
- TGI (HOP-92 NSCLC): 55.6 µM
- TGI (COLO 205 colon): > 100 µM
- TGI (LOX IMVI melanoma): > 100 µM
- TGI (NCI/ADR-RES ovarian): > 100 µM
- TGI (A549 NSCLC): > 100 µM
- TGI (MALME-3M melanoma): > 100 µM
- TGI (TK-10 renal): 85.6 µM
- TGI (HT29 colon): > 100 µM
- TGI (SNB-19 CNS): > 100 µM
- TGI (SN12C renal): > 100 µM
- TGI (SK-OV-3 ovarian): 49.9 µM
- TGI (SW-620 colon): > 100 µM
- TGI (CAKI-1 renal): > 100 µM
- TGI (EKVX NSCLC): 69.5 µM
- TGI (CCRF-CEM leukemia): > 100 µM
- TGI (KM12 colon): > 100 µM
- TGI (HCT-116 colon): > 100 µM
- TGI (NCI-H23 lung): > 100 µM
- TGI (NCI-H460 lung): > 100 µM
- TGI (HCT-15 colon): > 100 µM
- TGI (SK-MEL-2 melanoma): > 100 µM
- TGI (HS 578T breast): > 100 µM
- TGI (HOP-62 NSCLC): 27 µM
- TGI (OVCAR-8 ovarian): > 100 µM
- TGI (DU-145 prostate): 47.7 µM
- TGI (ACHN renal): > 100 µM
- TGI (OVCAR-3 ovarian): > 100 µM
- TGI (UO-31 renal): > 100 µM
- TGI (OVCAR-4 ovarian): > 100 µM
- TGI (MDA-MB-435): > 100 µM
- TGI (OVCAR-5 ovarian): > 100 µM
- TGI (786-0 renal): > 100 µM
- TGI (IGROV1 ovarian): > 100 µM
- TGI (RPMI-8226 leukemia): > 100 µM
- TGI (UACC-62 melanoma): 51.6 µM
- TGI (SF-268 CNS): 88.6 µM
- TGI (SK-MEL-5 melanoma): > 100 µM
- TGI (SF-539 CNS): 47.9 µM
- TGI (NCI-H522 lung): > 100 µM
- TGI (U251 CNS): 18.7 µM
- TGI (SK-MEL-28 melanoma): > 100 µM

SMILES: CCOP(=O)(OCC)/C(C#N)=C/c1cnc(C)[nH]1
- TGI (HL-60(TB) leukemia): > 100 µM
- TGI (PC-3 prostate): > 100 µM
- TGI (RXF 393 renal): > 100 µM
- TGI (M14 melanoma): > 100 µM
- TGI (SF-295 CNS): > 100 µM
- TGI (MDA-N): > 100 µM
- TGI (UACC-257 melanoma): > 100 µM
- TGI (HCC-2998 colon): > 100 µM
- TGI (BT-549 breast): > 100 µM
- TGI (NCI-H226 lung): > 100 µM
- TGI (MDA-MB-231 breast): > 100 µM
- TGI (MOLT-4 leukemia): > 100 µM
- TGI (MCF7 breast): > 100 µM
- TGI (SR leukemia): > 100 µM
- TGI (K-562 leukemia): > 100 µM
- TGI (A498 renal): > 100 µM
- TGI (HOP-92 NSCLC): > 100 µM
- TGI (COLO 205 colon): > 100 µM
- TGI (LOX IMVI melanoma): > 100 µM
- TGI (NCI/ADR-RES ovarian): > 100 µM
- TGI (A549 NSCLC): > 100 µM
- TGI (MALME-3M melanoma): > 100 µM
- TGI (TK-10 renal): > 100 µM
- TGI (HT29 colon): > 100 µM
- TGI (SNB-19 CNS): > 100 µM
- TGI (SN12C renal): > 100 µM
- TGI (SK-OV-3 ovarian): > 100 µM
- TGI (SNB-75 CNS): > 100 µM
- TGI (SW-620 colon): > 100 µM
- TGI (CAKI-1 renal): > 100 µM
- TGI (EKVX NSCLC): > 100 µM
- TGI (CCRF-CEM leukemia): > 100 µM
- TGI (KM12 colon): > 100 µM
- TGI (HCT-116 colon): > 100 µM
- TGI (NCI-H23 lung): > 100 µM
- TGI (NCI-H460 lung): > 100 µM
- TGI (HCT-15 colon): > 100 µM
- TGI (SK-MEL-2 melanoma): > 100 µM
- TGI (HS 578T breast): > 100 µM
- TGI (HOP-62 NSCLC): > 100 µM
- TGI (OVCAR-8 ovarian): > 100 µM
- TGI (DU-145 prostate): > 100 µM
- TGI (ACHN renal): > 100 µM
- TGI (OVCAR-3 ovarian): > 100 µM
- TGI (UO-31 renal): > 100 µM
- TGI (OVCAR-4 ovarian): > 100 µM
- TGI (MDA-MB-435): > 100 µM
- TGI (OVCAR-5 ovarian): > 100 µM
- TGI (786-0 renal): > 100 µM
- TGI (IGROV1 ovarian): > 100 µM
- TGI (RPMI-8226 leukemia): > 100 µM
- TGI (UACC-62 melanoma): > 100 µM
- TGI (SF-268 CNS): > 100 µM
- TGI (SK-MEL-5 melanoma): > 100 µM
- TGI (SF-539 CNS): > 100 µM
- TGI (NCI-H522 lung): > 100 µM
- TGI (U251 CNS): > 100 µM
- TGI (SK-MEL-28 melanoma): > 100 µM
